We go through 14 molecules from PubChem BioAssay (NCI).

Common to all, as to test: NCI tumour cell line growth inhibition, 48 h
Test [1] relates to BT-549 breast.
Test [2] deals with NCI/ADR-RES ovarian.
The test system of test [3] is MCF7 breast.
Test [4] concerns PC-3 prostate.
Test [5] deals with MDA-MB-435.

Values joined by “and” are separate entries in the source; they are usually repeats but may differ in a detail not shown here. Equal values may be shown once.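 These data come from cells grown in 96-well plates and exposed to compound for 48 hours at five concentrations. Abbreviation: GI50, concentration required for 50% inhibition of growth. TGI is the concentration that stops growth completely.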

With `O=C1CCCN1CC#CCN1CCCC1`, the GI50 in test [1], in test [2], in test [3], in test [4] and in test [5] was > 100 µM throughout. In addition, the TGI in test [1], in test [2], in test [3], in test [4] and in test [5] was > 100 µM in each case.
On to `COC(=O)CCCCCN=Cc1c(O)c(O)c(C(C)C)c2cc(C)c(-c3c(C)cc4c(C(C)C)c(O)c(O)c(C=NCCCCCC(=O)OC)c4c3O)c(O)c12`, for which the GI50 is 3 µM in test [1]; 9.04 µM in test [2]; 1.04 µM in test [3]; 1.03 µM in test [4]; 1.82 µM in test [5]. Also, the TGI is > 32.5 µM in test [1]; > 32.5 µM in test [2]; 5.83 µM in test [3]; > 32.5 µM in test [4]; > 32.5 µM in test [5].
Take `N#C[C@@H]1C(n2ccc(N)nc2=O)O[C@H](CO)[C@H]1O` (some centres not stated): the GI50 was > 100 µM in test [1]; 12.9 µM in test [2]; 0.993 µM in test [3]; 97.4 µM in test [4]; > 73 µM in test [5]. The TGI in test [1], in test [2], in test [3], in test [4] and in test [5] was > 100 µM in each case.
As to `CCN(CCNc1ccc(C)c2sc3ccccc3c(=O)c12)CC(C)(C)O`, the GI50 in test [1] was 15.3 µM; in test [2], 14.1 µM; in test [3] it was 11.1 µM; in test [4], 12.9 µM; in test [5], 6.51 µM. Further, the TGI turned out to be 36.6 µM in test [1]; 56.1 µM in test [2]; 26.8 µM in test [3]; 53.5 µM in test [4]; 28.6 µM in test [5].
On to `CC(C)(C)NC(=O)[C@H]1C[C@H]2CCCC[C@H]2CN1C[C@@H](O)[C@H](Cc1ccccc1)NC(=O)[C@H](CC(N)=O)NC(=O)c1ccc2ccccc2n1`, for which the GI50 in test [1] is 11.2 µM; in test [2] it was 19.4 µM; in test [3], 19.1 µM; in test [4], 7.17 µM; in test [5], 11.9 µM. The TGI in test [1] is > 66.1 µM; in test [2], 44.3 µM; in test [3] it was 43.5 µM; in test [4], 26.8 µM; in test [5], 32.8 µM.
In the case of `C[C@]12CC[C@@H]3c4ccc(O)cc4C(O)C[C@H]3[C@@H]1CCC2=O` (some centres not stated), the GI50 in test [1], in test [2], in test [3], in test [4] and in test [5] was > 100 µM each time. Further, the TGI in test [1], in test [2], in test [3], in test [4] and in test [5] was > 100 µM each time.
Turning to `c1cc(CNC2C3CCC(C3)C2c2c[nH]c3ccccc23)cc(CNC2C3CCC(C3)C2c2c[nH]c3ccccc23)c1` (configuration not stated), the TGI is 3.24 µM in test [1]; 2.6 µM and 1.99 µM in test [2]; 2.7 µM in test [4]. Besides, the GI50 in test [2] is 1.21 µM and 0.607 µM.
In the case of `CCCCCCN(CCCCCC)CC(O)c1ccc2c3c(cccc13)CC2` (configuration not stated), the GI50 was 13.5 µM in test [1]; 10.6 µM in test [2]; 6.01 µM in test [3]; 10.9 µM in test [4]; 3.11 µM in test [5]. Also, the TGI in test [1] was found to be 28.1 µM; in test [2], 26.2 µM; in test [3], 20.8 µM; in test [4] it was 28.7 µM; in test [5], 15.2 µM.
For `COc1cc(S(C)(=O)=O)ccc1Nc1nc2ccc(-c3ccc(NC(=O)[C@H](C)c4ccc(F)cc4)cc3)cn2n1`, the GI50 in test [1] was > 63.8 µM; in test [2] it was > 20.6 µM; in test [3] it was 0.749 µM; in test [4], 4.29 µM; in test [5], > 100 µM. The TGI in test [1], in test [2], in test [3], in test [4] and in test [5] was > 100 µM each time.
Consider `CC(=O)Nc1ccc(S(=O)(=O)NNC(=O)c2cccnc2Nc2ccc(Cl)cc2)cc1`, for which the GI50 in test [1] was 25.2 µM; in test [3], 4.34 µM; in test [4] it was 29.2 µM; in test [5], 3.2 µM. In addition, the TGI in test [1], in test [3], in test [4] and in test [5] was > 100 µM each time.
On to `C/C(=N\NC(N)=S)c1nc2ccc(Cl)cc2[nH]1`, for which the GI50 was 3.57 µM in test [1]; 1.21 µM in test [2]; 1.64 µM in test [3]; 4.05 µM in test [4]; 2.95 µM in test [5]. In addition, the TGI in test [1] was 14.3 µM; in test [2] it was > 50 µM; in test [3] it was > 50 µM; in test [4], 48.2 µM; in test [5], 24.6 µM.
Consider `O=C1Nc2cccc3cc(NCC(O)CCl)cc1c23` (configuration not stated), for which the TGI in test [1], in test [2], in test [3], in test [4] and in test [5] was > 100 µM throughout.
As to `COC(=O)C1=C(C(=O)OC)SC(=C(Cl)C(=S)Sc2ccccc2N)S1`, the GI50 in test [1] was 2.03 µM; in test [2], 25.5 µM; in test [3], 16.7 µM; in test [4], 29.6 µM; in test [5], 29.3 µM. The TGI is 8.6 µM in test [1]; 62.1 µM in test [2]; 34 µM in test [3]; > 100 µM in test [4]; > 100 µM in test [5].
`O=C1CC(=O)OC(c2ccc([N+](=O)[O-])cc2)O1`: the GI50 in test [1] is 2 µM; in test [2] it was 3.19 µM; in test [3], 1.59 µM; in test [4], 2.36 µM; in test [5], 2.59 µM. Also, the TGI in test [1] worked out at 3.87 µM; in test [2], 14.1 µM; in test [3], 3.84 µM; in test [4], 6.43 µM; in test [5], 8.62 µM.
